Read-outs that look alike come from different tables or passages of the source.
What was measured:
[1] = Milk-to-plasma (M/P) drug concentration ratio obtained in vivo, from literature; set-up: species or system human; conditions: Table S1, scale of drug penetration into milk 1-4
[2] = RP TLC on non-impregnated control plates; type: physicochemical; conditions: Table S4, non-impregnated RP plate; acetonitrile/acetate buffer pH 7.4/methanol 60:20:20
Protocol: (§1) For TLC chromatography, glass plates 20 × 20 cm from Merck, covered with silica gel with the addition of a fluorescent indicator, were used. Normal phase (NP) plates were used with standard Merck TLC Silica gel 60 F254 plates, while in reverse phase (RP) silanized plates RP-2: Merck TLC Silica gel 60 RP-2 F254 were used.
(§2) Normal and reversed phase thin layer chromatography (NP TLC and RP TLC respectively) was performed using silica-gel-coated glass plates. Half of them were covered with 2 mg/mL bovine serum albumin solution and half remained pure.
(§3) The mobility of the compounds was also determined on the plates with no protein as a modifier. […] The acetate buffer (20 mM) was prepared by dissolving 1.54 g of ammonium acetate in 1 L of distilled water. The pH was then adjusted with a concentrated ammonia solution using a pH meter. The plates were developed in standard, vertical chromatographic chambers, each time using 100 mL of the mobile phase, after the chamber was previously saturated with solvent vapors for approximately 1 h.
(§4) The unfolded-protein-impregnated plates and the control plates were scanned with a Desaga CD 60 densitometer. The values of the delay factor (Rf) were collected, i.e., the ratio of the distance traveled by the substance to be analyzed to the distance traveled through the front of the mobile phase. […] The experiment was repeated (for both BSA-coated and control plates) and the Rf values pooled are the mean of both series of experiments.

[3] = Table S1, coded 1/0; ref DrugBank [7]; cited from earlier work
[4] = biological target: T1, human serum albumin (HSA) (Homo sapiens, UniProt P02768)
Protocol: (§5) High performance liquid chromatography was performed using immobilized human serum albumin column (HPLCHSA) and immobilized artificial membrane (HPLCIAM). HPLC was the source of the log k values (logarithm of retention factor), log kHSA and log kIAM.
(§6) High performance liquid chromatography was performed using a chromatography column with immobilized human serum albumin. The assay was performed on a Perkin Elmer Series 200 instrument connected to a UV-VIS spectrometer as detector. The analytical wavelength was the same for all compounds at 210 nm. […] The acetate buffer was prepared by dissolving 0.77 g of ammonium acetate in 1 L of distilled water. The pH was then adjusted with a concentrated ammonia solution using a pH meter.
(§7) The phase flow through the system was set to 0.9 mL/min as recommended by the column manufacturer. The solutions were delivered to the column using an autosampler syringe, the injection size was 10 µL. Since the column could not be thermostated, the room was kept at a constant temperature of 25 degrees Celsius.
(§8) Chromatographic data (retention coefficient, k, and derivative, log k) were obtained with TotalChrom software connected to an HPLC instrument. […] The experiment was then repeated and the collected retention rates were the mean values of both series.

[5] = Table S1, milk/plasma drug concentration ratio, in vivo; cited from earlier work
[6] = NP TLC on non-impregnated control plates; type: physicochemical; conditions: Table S3, non-impregnated NP plate; acetonitrile/acetate buffer pH 7.4/methanol 60:20:20
Protocol: as §1, §2, §3, §4

[7] = HPLC on immobilized artificial membrane column (HPLCIAM); type: physicochemical; conditions: for log k IAM: Table S5, IAM column, pH 7.4; for k IAM: Table S5, retention factor, IAM column, phosphate buffer pH 7.4/acetonitrile 80:20
Protocol: as §5
The second experiment was performed using an immobilized artificial membrane (IAM) column. The assay was also performed on a Perkin Elmer Series 200 instrument connected to a UV-VIS spectrometer as the detector. The analytical wavelength was the same for all compounds, at 210 nm. […] The mobile phase was a mixture of 10 mM phosphate buffer pH 7.4 and acetonitrile in the ratio 80:20 (v/v). The phosphate buffer was obtained by dissolving the finished tablet in the appropriate amount of distilled water (1 tablet per 200 mL). In this case, it was not necessary to adjust the pH of the buffer using a pH meter.
The phase flow through the system was set to 0.5 mL/min as recommended by the column manufacturer. The solutions were delivered to the column using an autosampler syringe, the injection size was 10 µL.
The experiment was then repeated and the collected retention rates were the mean values of both series.

[8] = biological target: T2, bovine serum albumin (BSA) (Bos taurus, UniProt P02769); test: NP TLC on plates impregnated with bovine serum albumin; type: binding; conditions: Table S3, NP plate impregnated with 2 mg/mL BSA; pH 7.4 mobile phase
T2 construct: purchased Sigma Aldrich
Description: Chromatographic descriptors were obtained in experiments, thin layer chromatography in normal (NP TLC) and reversed mode (RP TLC). The stationary phase was modified with bovine serum albumin (BSA). TLC was the source of retention factor (Rf) values, denoted in statistical models as NP and RP.
as §1
The stationary phase of the plates, both NP and RP, was modified with an aqueous solution of bovine serum albumin purchased from Sigma Aldrich (bovine serum albumin, lyophilized powder).
The impregnation of the plates was carried out with a 2 mg/mL solution applied to the surface using a Desaga SG 1 hand sprayer; the plates were then air dried. […] Normal and reversed phase thin layer chromatography (NP TLC and RP TLC respectively) was performed using silica-gel-coated glass plates. Half of them were covered with 2 mg/mL bovine serum albumin solution and half remained pure.
as §3, §4

[9] = biological target: T2, bovine serum albumin (BSA); test: RP TLC on plates impregnated with bovine serum albumin; type: binding; conditions: Table S4, RP plate impregnated with 2 mg/mL BSA; pH 7.4 mobile phase
plasma protein = conditions: ref DrugBank [7], cited from earlier work
[10] = biological target: T1, human serum albumin (HSA); test: in vitro; conditions: immobilized hsa column, pH 7.4
Protocol: as §5, §6, §7, §8

[11] = source not stated, cited from earlier work
[12] = Table S5, retention factor, HSA column, pH 7.4, 25 degrees Celsius
[13] = human, immobilized hsa column, pH 7.4
[14] = Table S1, plasma protein binding given as fraction

T2 sequence (P02769 25-607): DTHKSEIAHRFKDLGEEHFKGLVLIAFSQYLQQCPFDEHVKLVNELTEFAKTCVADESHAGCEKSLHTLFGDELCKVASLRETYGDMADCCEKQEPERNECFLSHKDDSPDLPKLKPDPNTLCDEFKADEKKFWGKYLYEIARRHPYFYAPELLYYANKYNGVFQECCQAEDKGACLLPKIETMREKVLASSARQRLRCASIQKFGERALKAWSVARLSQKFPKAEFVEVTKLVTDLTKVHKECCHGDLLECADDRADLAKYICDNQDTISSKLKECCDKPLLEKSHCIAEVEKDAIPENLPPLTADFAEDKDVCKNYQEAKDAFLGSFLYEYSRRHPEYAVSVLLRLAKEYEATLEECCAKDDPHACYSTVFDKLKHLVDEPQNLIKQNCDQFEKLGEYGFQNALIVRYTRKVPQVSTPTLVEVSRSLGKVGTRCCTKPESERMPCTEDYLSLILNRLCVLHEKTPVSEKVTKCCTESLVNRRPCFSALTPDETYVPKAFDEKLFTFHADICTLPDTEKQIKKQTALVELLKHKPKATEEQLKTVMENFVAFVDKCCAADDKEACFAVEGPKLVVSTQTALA
T1 sequence (P02768 25-609): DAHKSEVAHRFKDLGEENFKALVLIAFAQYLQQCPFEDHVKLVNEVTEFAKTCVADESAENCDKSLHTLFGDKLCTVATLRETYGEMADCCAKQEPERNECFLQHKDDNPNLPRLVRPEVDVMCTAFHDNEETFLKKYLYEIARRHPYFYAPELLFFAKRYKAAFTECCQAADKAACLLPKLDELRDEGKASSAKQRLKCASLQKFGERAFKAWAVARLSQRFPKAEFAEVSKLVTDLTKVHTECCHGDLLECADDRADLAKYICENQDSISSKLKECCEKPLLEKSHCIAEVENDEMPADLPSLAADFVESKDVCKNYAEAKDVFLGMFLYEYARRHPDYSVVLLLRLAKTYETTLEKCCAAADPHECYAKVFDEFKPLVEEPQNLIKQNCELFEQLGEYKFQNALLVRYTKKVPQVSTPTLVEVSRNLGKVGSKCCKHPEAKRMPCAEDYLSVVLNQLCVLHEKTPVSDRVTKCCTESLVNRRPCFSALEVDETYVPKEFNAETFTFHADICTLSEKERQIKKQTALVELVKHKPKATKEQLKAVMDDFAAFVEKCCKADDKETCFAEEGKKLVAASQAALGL

Row | Structure (SMILES) | M/P code [1] | CRP (Rf, control RP plate) [2] | CNS+/- [3] | k HSA [4, 12] | log k HSA [4, 13] | M/P [5] | CNP (Rf, control NP plate) [6] | log k IAM [7] | k IAM [7] | NP (Rf, BSA-impregnated NP plate) [8] | RP (Rf, BSA-impregnated RP plate) [9] | PB (plasma protein; [14]) | chromatographic logD [10] | BB vivo ([11]; Table S1) | k HSA ([4]; pH 7.4) | BB vivo ([11]; Table S6, external group) | PB (plasma protein; Table S6, external group (n = 38), given as fraction) | log k HSA ([4]; Table S5, HSA, pH 7.4)
1 | CCOC(=O)[C@H](CCc1ccccc1)N[C@@H](C)C(=O)N1Cc2ccccc2C[C@H]1C(=O)O [quinapril] | 1 (Code 1 corresponds to drugs with an M/P value <0.40—completely safe) | 0.57 | 0 | 3.1 | 0.49 | 0.12 | 0.44 | 0.09 | 1.22 | 0.44 | 0.56 | 0.97 |  |  |  |  |  | 
2 | CN1C(C(=O)Nc2ccccn2)=C(O)c2ccccc2S1(=O)=O [piroxicam] | 1 (Code 1 corresponds to drugs with an M/P value <0.40—completely safe) | 0.58 | 0 | 32.92 |  | 0.02 | 0.98 | -0.79 | 0.16 | 0.98 | 0.60 |  | 1.52 |  |  |  |  | 
3 | O=C1Nc2ccc(Cl)cc2C(c2ccccc2Cl)=NC1O (stereo not shown) [lorazepam] |  |  |  |  |  |  |  | 0.96 | 9.04 |  |  | 0.87 |  | 0.440 | 2.21 |  |  | 
4 | OCCN1CCN(CCC=C2c3ccccc3Sc3ccc(C(F)(F)F)cc32)CC1 [flupenthixol] | 3 (3 range 0.81–1.20—possibly over the safety limit) | 0.66 | 1 | 15.36 |  | 1.15 | 0.51 | 1.71 | 51.21 | 0.52 | 0.66 | 0.95 | 1.19 |  |  |  |  | 
5 | C[C@H]1c2cccc(O)c2C(=O)C2=C(O)[C@]3(O)C(=O)C(C(N)=O)=C(O)[C@@H](N(C)C)[C@@H]3[C@@H](O)[C@@H]21 [doxycycline] | 1 (Code 1 corresponds to drugs with an M/P value <0.40—completely safe) | 0.08 | 0 | 1.68 |  | 0.34 | 0.06 | 0.24 | 1.76 | 0.05 | 0.09 | 0.9 | 0.23 |  |  |  |  | 
6 | Cn1c(=O)c2[nH]cnc2n(C)c1=O [theophylline] |  |  |  |  |  |  |  | -0.94 | 0.12 |  |  |  |  | -0.341 |  |  |  | 
7 | CCCC(CCC)C(=O)O [valproic acid] | 1 (Code 1 corresponds to drugs with an M/P value <0.40—completely safe) | 0.04 | 1 | 4.46 |  | 0.05 | 0.69 | -1.09 | 0.08 | 0.67 | 0.04 | 0.85 | 0.65 |  |  |  |  | 
8 | CC(=O)Oc1ccccc1C(=O)O [acetylsalicylic acid] | 3 (3 range 0.81–1.20—possibly over the safety limit) | 0.98 | 1 | 0.31 |  | 1.08 | 0.89 | -1.52 | 0.03 | 0.90 | 0.99 | 0.995 | -0.51 |  |  |  |  | 
9 | COc1ccc2c(c1)c(CC(=O)O)c(C)n2C(=O)c1ccc(Cl)cc1 [indomethacin] |  |  |  |  |  |  |  | 0.03 | 1.08 |  |  | 0.97 |  | -1.260 |  |  |  | 
10 | CCO [ethanol] |  |  |  |  |  |  |  |  |  |  |  |  |  |  |  | -0.16 | 0.00 | 
11 | CC1(C)S[C@@H]2[C@H](NC(=O)[C@H](N)c3ccc(O)cc3)C(=O)N2[C@H]1C(=O)O [amoxilcillin] | 1 (Code 1 corresponds to drugs with an M/P value <0.40—completely safe) | 0.99 | 0 | 0.94 |  | 0.028 | 0.68 | -1.32 | 0.05 | 0.68 | 0.98 | 0.2 |  |  |  |  |  | -0.03
12 | C[C@](N)(Cc1ccc(O)c(O)c1)C(=O)O [methyldopa] | 1 (Code 1 corresponds to drugs with an M/P value <0.40—completely safe) | 0.85 | 0 | 0.36 |  | 0.265 | 0.38 | -1.02 | 0.10 | 0.37 | 0.86 | 0.2 | -0.44 |  |  |  |  | 
13 | Cc1ccc(-c2cc(C(F)(F)F)nn2-c2ccc(S(N)(=O)=O)cc2)cc1 [celecoxib] | 2 (2 corresponds to the range of 0.40–0.80—at the safety limit) | 0.75 | 1 | 13.42 |  | 0.41 | 0.98 | 1.70 | 50.01 | 0.99 | 0.75 | 0.97 |  |  |  |  |  | 1.13
14 | O=c1n(CCCN2CCN(c3cccc(Cl)c3)CC2)nc2ccccn12 [trazodone] | 2 (2 corresponds to the range of 0.40–0.80—at the safety limit) | 0.76 | 1 | 2.22 |  | 0.53 | 0.71 | 0.97 | 9.30 | 0.72 | 0.74 | 0.92 | 0.35 |  |  |  |  | 
15 | Cc1ccc(-c2nc3ccc(C)cn3c2CC(=O)N(C)C)cc1 [zolpidem] |  |  |  |  |  |  |  | 0.42 | 2.60 |  |  |  |  | -0.480 | 1.77 |  |  | 
16 | CCOC(=O)[C@H](CCc1ccccc1)N[C@@H](C)C(=O)N1CCC[C@H]1C(=O)O [enalapril] | 1 (Code 1 corresponds to drugs with an M/P value <0.40—completely safe) | 0.60 | 0 | 0.34 |  | 0.02 | 0.33 | -1.29 | 0.05 | 0.33 | 0.58 | 0.55 | -0.47 |  |  |  |  | 
17 | O=C1CC2(CCCC2)CC(=O)N1CCCCN1CCN(c2ncccn2)CC1 [buspirone] |  |  |  |  |  |  |  | 0.84 | 7.00 |  |  |  |  | 0.480 |  |  |  | 
18 | COc1cc(N)c(Cl)cc1C(=O)NC1CCN(CCCOc2ccc(F)cc2)CC1OC (stereo not shown) [cisapride] | 1 (Code 1 corresponds to drugs with an M/P value <0.40—completely safe) | 0.65 | 1 | 4.88 | 0.69 | 0.045 | 0.64 | 1.76 | 57.99 | 0.63 | 0.62 | 0.975 |  |  |  |  |  | 
19 | OCCN1CCN(CC/C=C2/c3ccccc3Sc3ccc(Cl)cc32)CC1 [zuclopenthixol] | 1 (Code 1 corresponds to drugs with an M/P value <0.40—completely safe) |  | 1 | 16.18 |  | 0.37 | 0.47 | 1.69 | 48.73 | 0.47 |  | 0.985 | 1.21 |  |  |  |  | 
20 | O=C(O)C1N=C(c2ccccc2)c2cc(Cl)ccc2NC1=O (stereo not shown) [clorazepate] | 1 (Code 1 corresponds to drugs with an M/P value <0.40—completely safe) | 0.81 |  |  |  | 0.2 | 0.94 | 0.69 | 4.88 | 0.94 | 0.81 | 0.975 | 0.6 |  | 3.99 |  |  | 
21 | CN1CCN(C(=O)OC2c3nccnc3C(=O)N2c2ccc(Cl)cn2)CC1 (stereo not shown) [zopiclone] | 2 (2 corresponds to the range of 0.40–0.80—at the safety limit) | 0.84 |  |  |  | 0.51 | 0.96 | -0.04 | 0.91 | 0.96 | 0.83 | 0.45 | -0.12 |  | 0.76 |  |  | 
